Patent US12703729B2, “GIP agonist compounds and methods” (Zealand Pharma A/S, priority 2014, dated 2026)
Starred links: 1 amine or outer side, 2 acyl side, 3 side chain; linkers in the order of their positions; H or OH if unused. Non-standard residues stand in square brackets, D forms with d. Residues, ends and D or L forms follow the SMILES beside them. Groups on a side chain read outwards from the residue. *: point of attachment. C20 diacid = O=C(O)CCCCCCCCCCCCCCCCCCC(=O)*; γGlu = O=C(O)[C@H](CCC(=O)[*:2])N[*:1]; Palmitoyl = CCCCCCCCCCCCCCCC(=O)*; AEEA = NCCOCCOCC(=O)O; Aib = CC(C)(N)C(=O)O

Assays:
human GIP R = target: T1, human GIP R (Homo sapiens, UniProt P48546); experiment: cell-based
T1 sequence (P48546 22-466): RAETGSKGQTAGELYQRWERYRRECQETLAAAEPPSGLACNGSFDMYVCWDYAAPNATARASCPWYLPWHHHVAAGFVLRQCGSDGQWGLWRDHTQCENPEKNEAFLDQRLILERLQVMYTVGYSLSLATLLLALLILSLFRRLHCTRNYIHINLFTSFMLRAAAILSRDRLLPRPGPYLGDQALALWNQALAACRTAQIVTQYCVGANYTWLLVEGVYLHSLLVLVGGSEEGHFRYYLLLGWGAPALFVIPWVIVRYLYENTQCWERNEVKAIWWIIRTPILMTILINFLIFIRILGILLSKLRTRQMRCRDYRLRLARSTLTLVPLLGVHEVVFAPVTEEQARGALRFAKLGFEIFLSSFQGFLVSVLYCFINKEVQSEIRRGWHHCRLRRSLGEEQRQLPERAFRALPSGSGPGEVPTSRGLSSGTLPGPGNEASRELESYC

[1] = target: T2, human GIP receptor (GIP R) (Homo sapiens, UniProt P48546); experiment: Activity assay at human GIP receptor, cAMP induction (AlphaScreen), Example 3
T2 sequence (P48546 22-466): T1 sequence (P48546 22-466)

[2] = target: human GLP-1 receptor (GLP-1R) (Homo sapiens, UniProt P43220); experiment: Activity assay at human GLP-1 receptor, cAMP induction (AlphaScreen), Example 3
Sequence of human GLP-1 receptor (GLP-1R) (P43220 24-463): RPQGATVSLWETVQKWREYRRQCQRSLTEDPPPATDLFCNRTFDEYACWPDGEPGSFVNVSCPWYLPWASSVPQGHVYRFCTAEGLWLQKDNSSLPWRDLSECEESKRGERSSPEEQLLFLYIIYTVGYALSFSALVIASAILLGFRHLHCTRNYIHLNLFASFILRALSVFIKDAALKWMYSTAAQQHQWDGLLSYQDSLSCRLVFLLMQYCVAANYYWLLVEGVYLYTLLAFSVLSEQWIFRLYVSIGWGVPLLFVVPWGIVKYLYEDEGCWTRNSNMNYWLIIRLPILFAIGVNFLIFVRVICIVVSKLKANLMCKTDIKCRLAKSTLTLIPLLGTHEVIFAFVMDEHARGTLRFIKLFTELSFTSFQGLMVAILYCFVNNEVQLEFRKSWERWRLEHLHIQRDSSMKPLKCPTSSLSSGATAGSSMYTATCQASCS

SMILES | EC50 (human GIP R) | EC50 [1] | EC50 [2]
CCCCCCCCCCCCCCCC(=O)N[C@@H](CCC(=O)NCCCC[C@H](NC(=O)[C@H](CO)NC(=O)[C@@H]1CCCN1C(=O)[C@@H]1CCCN1C(=O)[C@@H]1CCCN1C(=O)[C@H](C)NC(=O)CNC(=O)[C@H](CO)NC(=O)[C@H](CO)NC(=O)[C@@H]1CCCN1C(=O)CNC(=O)[C@H](CCC(N)=O)NC(=O)[C@H](C)NC(=O)[C@H](CC(C)C)NC(=O)[C@H](CC(C)C)NC(=O)[C@H](Cc1c[nH]c2ccccc12)NC(=O)[C@H](CC(N)=O)NC(=O)[C@@H](NC(=O)[C@H](Cc1ccccc1)NC(=O)[C@H](CC(=O)O)NC(=O)[C@H](CCC(N)=O)NC(=O)[C@H](CCC(N)=O)NC(=O)[C@H](Cc1c[nH]cn1)NC(=O)[C@@H](NC(=O)[C@H](CCCCN)NC(=O)[C@H](CC(=O)O)NC(=O)[C@H](CC(C)C)NC(=O)[C@H](CCC(=O)O)NC(=O)[C@@H](NC(=O)[C@H](CO)NC(=O)[C@H](Cc1ccc(O)cc1)NC(=O)[C@H](CC(=O)O)NC(=O)[C@H](CO)NC(=O)[C@@H](NC(=O)[C@H](Cc1ccccc1)NC(=O)[C@@H](NC(=O)CNC(=O)[C@H](CCC(=O)O)NC(=O)C(C)(C)NC(=O)[C@@H](N)Cc1ccc(O)cc1)[C@@H](C)O)[C@@H](C)CC)[C@@H](C)CC)[C@@H](C)CC)C(C)C)C(N)=O)C(=O)O [Compound 5] (H-Y[Aib]EGTFISDYSIELDKIHQQDFVNWLLAQGPSSGAPPPSK([γGlu-Palmitoyl])-NH2) | 0.014 nM | 0.014 nM | 
CCCCCCCCCCCCCCCC(=O)N[C@@H](CCC(=O)NCCCC[C@H](NC(=O)[C@H](CCC(N)=O)NC(=O)[C@H](C)NC(=O)[C@H](CC(C)C)NC(=O)[C@H](CC(C)C)NC(=O)[C@H](Cc1c[nH]c2ccccc12)NC(=O)[C@H](CC(N)=O)NC(=O)[C@@H](NC(=O)[C@H](Cc1ccccc1)NC(=O)[C@H](CC(=O)O)NC(=O)[C@H](CCC(N)=O)NC(=O)[C@H](CCC(N)=O)NC(=O)[C@H](Cc1c[nH]cn1)NC(=O)[C@@H](NC(=O)[C@H](CCCCN)NC(=O)[C@H](CC(=O)O)NC(=O)[C@H](CC(C)C)NC(=O)[C@H](CCC(=O)O)NC(=O)[C@@H](NC(=O)[C@H](CO)NC(=O)[C@H](Cc1ccc(O)cc1)NC(=O)[C@H](CC(=O)O)NC(=O)[C@H](CO)NC(=O)[C@@H](NC(=O)[C@H](Cc1ccccc1)NC(=O)[C@@H](NC(=O)CNC(=O)[C@H](CCC(=O)O)NC(=O)C(C)(C)NC(=O)[C@@H](N)Cc1ccc(O)cc1)[C@@H](C)O)[C@@H](C)CC)[C@@H](C)CC)[C@@H](C)CC)C(C)C)C(N)=O)C(=O)O [Compound 6] (H-Y[Aib]EGTFISDYSIELDKIHQQDFVNWLLAQK([γGlu-Palmitoyl])-NH2) | 0.032 nM | 0.014 nM | 
CC[C@H](C)[C@H](NC(=O)[C@H](CO)NC(=O)[C@H](Cc1ccc(O)cc1)NC(=O)[C@H](CC(=O)O)NC(=O)[C@H](CO)NC(=O)[C@@H](NC(=O)[C@H](Cc1ccccc1)NC(=O)[C@@H](NC(=O)CNC(=O)[C@H](CCC(=O)O)NC(=O)C(C)(C)NC(=O)[C@@H](N)Cc1ccc(O)cc1)[C@@H](C)O)[C@@H](C)CC)C(=O)N[C@@H](CCC(=O)O)C(=O)N[C@@H](CC(C)C)C(=O)N[C@@H](CC(=O)O)C(=O)N[C@@H](CCCCN)C(=O)N[C@@H](CCCCNC(=O)COCCOCCNC(=O)COCCOCCNC(=O)CC[C@H](NC(=O)CCCCCCCCCCCCCCCCCCC(=O)O)C(=O)O)C(=O)N[C@@H](Cc1c[nH]cn1)C(=O)N[C@@H](CCC(N)=O)C(=O)N[C@@H](CCC(N)=O)C(=O)N[C@@H](CC(=O)O)C(=O)N[C@@H](Cc1ccccc1)C(=O)N[C@H](C(=O)N[C@@H](CC(N)=O)C(=O)N[C@@H](Cc1ccc(O)cc1)C(=O)N[C@@H](CC(C)C)C(=O)N[C@@H](CC(C)C)C(=O)N[C@@H](C)C(=O)N[C@@H](CCC(N)=O)C(=O)NCC(=O)N1CCC[C@H]1C(=O)N[C@@H](CO)C(=O)N[C@@H](CO)C(=O)NCC(=O)N[C@@H](C)C(=O)N1CCC[C@H]1C(=O)N1CCC[C@H]1C(=O)N1CCC[C@H]1C(=O)N[C@@H](CO)C(N)=O)C(C)C [Compound 8] (H-Y[Aib]EGTFISDYSIELDKK([AEEA-AEEA-γGlu-C20 diacid])HQQDFVNYLLAQGPSSGAPPPS-NH2) | 0.009 nM |  | > 10 nM
